Laboratory results reported in patent US8772290B2, “Alpha-arylmethoxyacrylate derivative, preparation method thereof, and pharmaceutical composition containing same” (Oscotech Inc., priority 2010, dated 2014).

The compounds below were run on tumor-induced angiogenesis (HCT116 cells) (assay: Assay for inhibitory activity against in vivo tumor-induced angiogenesis (intravital microscopy)). Settings: 1 μmol in Matrigel with VEGF and HCT116 cells in abdominal window, four days, t-test p<0.01, FIGS. 4A and 4B.
Set-up: species or system BALB/c mice
Procedure: The inhibitory activity of the compounds of the present invention against angiogenesis was examined in vivo using intravital microscopy. Titanium windows (diameter 19 mm, inner diameter 14 mm, thickness 0.7 mm) were implanted in the abdominal walls male BALB/c mice, 6-8 weeks old, which had been anesthetized. A mixture of 100 μL Matrigel™ 20 ng VEGF, 1×10^5 HCT116 or HCT116 cells, and 1 μmol compound 75 was inserted into the tissues inside the window which was then covered with a cover slip and fixed with a snap ring. Four days later, 50 μL of 25 mg/mL fluorescein isothiocyanate-labeled dextran (Mw 250,000 Sigma) was injected via the tail vein to examine angiogenesis. Mice were then placed on a Zeiss Axiovert™ 200M microscope with a filter set (440-475 nm, excitation wavelength; 530-550 nm, emission wavelength). Fluorescence images were recorded in each window by an electron-multiplying CCD camera (Photon Max™ 521, Princeton Instruments) and digitized for subsequent off-line analysis using the MetaMorph™ program (Universal Imaging). The angiogenesis was scored from 0 (least positive) to 5 (most positive). Observations and degree of angiogenesis are shown in FIGS. 4A and 4B, respectively. […] Accordingly, the compound of the present invention was identified to inhibit angiogenesis in vivo.
`CO/C=C(/C(=O)OC)c1ccccc1COc1cccc(/C=N/OCCOc2ccccc2)c1` [Compound 75, (E)-methyl 2-(2-((3-((E)-(2-phenoxyethoxyimino)methyl)phenoxy)-methyl)phenyl)-3-methoxyacrylate] was tested, and the “degree of angiogenesis (score 0 to 5) versus HCT-116 group” value was “significant difference”.

These compounds were tested on HIF (assay: Assay for inhibitory activity against HIF activity (HIF1 luciferase reporter cell line)). Settings: HEK293 HIF1 reporter cell line, 1% oxygen, 6 hours, luciferase activity 50% inhibited.
Type: cell-based, human
Text: In order to assay the compounds of the present invention for inhibitory activity against HIF activity, the HIF1 reporter plasmid (Panomics) that is designed to control the expression of luciferase by HIF was employed. The HIF1 reporter plasmid and the pTK-Hyg plasmid (Clontech), which carries a hygromycin resistant gene, were co-transfected into the HEK293 cell line (the Korean Cell Line Bank, KCLB No. 21573), derived from the human kidney, with the aid of Effectene transfection reagent (Qiagen). Then, the cells were cultured for 3 weeks on a medium containing 200 μg/mL hygromycin to select transformants resistant to hygromycin. The cell colonies derived from single cells were transferred to 24-well plates to secure a reporter cell line. The cells were seeded at a density of 4×10^4 cells/well into 96-well plates containing DMEM and incubated for 24 hours before treatment with the compounds of the present invention at a concentration of 25 μM, 5 μM, 1 μM, 200 nM, 40 nM, 8 nM, 1.6 nM, 320 pM, 64 pM, 12.8 pM, 2.56 pM, 512 fM, 102 fM, 20.4 fM, or an amount between any two concentrations above as shown in FIGS. 1A to 1C. Under 1% oxygen condition, the cells were incubated for 6 hours and then, the medium was removed. The cells were lyzed by incubation for 5 min with 100 μL of the mixture of Bright-Glo™ luciferase assay buffer and Bright-Glo™ luciferase assay substrate (Promega). The whole cell lysate was transferred to 96-well, white plates (PerkinElmer) and measured for luminescence using Victor™ 3 (PerkinElmer). From the luminescence measurements, IC50 (a concentration of the compound at which luciferase activity was 50% inhibited) was calculated using the GraphPad Prism™ 4 program. The results are summarized in Table 2 and illustrated in FIGS. 1A to 1C.
Work on “(E)-methyl 2-(2-((3-hydroxy-5-(2-phenoxyethoxy)phenoxy)methyl)-phenyl)-3-methoxyacrylate [Compound 20]” yielded an IC50 of 6060 nM.

Same assay, conditions: Homo sapiens; HEK293 HIF1 reporter cell line, 1% oxygen, 6 hours, luciferase activity 50% inhibited
Compound `CO/C=C(/C(=O)OC)c1ccccc1COc1cc(/C=N/OCc2ccc(C)cc2)ccc1OC` [Compound 58, (E)-methyl 2-(2-((2-methoxy-5-((E)-1-(4-methylbenzyloxyimino)methyl)-phenoxy)methyl)phenyl)-3-methoxyacrylate] has an IC50 of 1260 nM.
Work on `CO/C=C(/C(=O)OC)c1ccccc1COc1ccc(/C=N/OCCc2ccccc2)cc1C` [Compound 59, (E)-methyl 2-(2-((2-methyl-4-((E)-(phenylethoxyimino)methyl)phenoxy)-methyl)phenyl)-3-methoxyacrylate] yielded an IC50 of 261 nM.
For `CO/C=C(/C(=O)OC)c1ccccc1COc1ccc(/C=N/OCc2ccc(C)cc2)cc1C` [Compound 60, (E)-methyl 2-(2-((2-methyl-4-((E)-(4-methylbenzyloxyimino)methyl)-phenoxy)methyl)phenyl)-3-methoxyacrylate], the IC50 was 110 nM.
`CO/C=C(/C(=O)OC)c1ccccc1COc1c(F)cc(/C=N/OCc2ccccc2)cc1OC` [Compound 61, (E)-methyl 2-(2-((4-((E)-(benzyloxyimino)methyl)-2-fluoro-6-methoxyphenoxy)methyl)phenyl)-3-methoxyacrylate] gave an IC50 of 5540 nM.
Work on `CO/C=C(/C(=O)OC)c1ccccc1COc1ccc(F)c(OCc2ccccc2)c1F` [Compound 62, (E)-methyl 2-(2-((3-(benzyloxy)-2,4-difluorophenoxy)methyl)phenyl)-3-methoxyacrylate] yielded an IC50 of 200 nM.
`CO/C=C(/C(=O)OC)c1ccccc1COc1cc(C)c(/C=N/Oc2ccccc2)cc1C` [Compound 63, (E)-methyl 2-(2-((2,5-dimethyl-4-((E)-(phenoxyimino)methyl)phenoxy)-methyl)phenyl)-3-methoxyacrylate] gave an IC50 of 40 nM.
`CCCO/N=C/c1cc(F)c(OCc2ccccc2/C(=C\OC)C(=O)OC)c(OC)c1` [Compound 64, (E)-methyl 2-(2-((2-fluoro-6-methoxy-4-((E)-(propoxyimino)methyl)-phenoxy)methyl)phenyl)-3-methoxyacrylate] gave an IC50 of 2620 nM.
Compound `CCCOc1c(F)ccc(OCc2ccccc2/C(=C\OC)C(=O)OC)c1F` [Compound 65, (E)-methyl 2-(2-((2,4-difluoro-3-propoxyphenoxy)methyl)phenyl)-3-methoxyacrylate] has an IC50 of 1000 nM.
`CO/C=C(/C(=O)OC)c1ccccc1COc1c(F)cc(/C=N/OCCc2ccccc2)cc1OC` [Compound 66, (E)-methyl 2-(2-((2-fluoro-6-methoxy-4-((E)-(phenethoxyimino)methyl)-phenoxy)methyl)phenyl)-3-methoxyacrylate] was tested, and the IC50 was 900 nM.
Work on `CO/C=C(/C(=O)OC)c1ccccc1COc1ccc(/C=N/OCC2CC2)cc1C` [Compound 67, (E)-methyl 2-(2-((4-((E)-(cyclopropylmethoxyimino)methyl)-2-methylphenoxy)methyl)phenyl)-3-methoxyacrylate] yielded an IC50 of 60 nM.
For `CO/C=C(/C(=O)OC)c1ccccc1COc1cc(C)c(/C=N/OCC2CC2)cc1C` [Compound 68, (E)-methyl 2-(2-((4-((E)-(cyclopropylmethoxyimino)methyl)-2,5-dimethylphenoxy)methyl)phenyl)-3-methoxyacrylate], the IC50 was 7 nM.
`CO/C=C(/C(=O)OC)c1ccccc1COc1cc(C)c(/C=N/OC2CCCC2)cc1C` [Compound 69, (E)-methyl 2-(2-((4-((E)-(cyclopentyloxyimino)methyl)-2,5-dimethylphenoxy)methyl)phenyl)-3-methoxyacrylate] showed an IC50 of 30 nM.
With `CO/C=C(/C(=O)OC)c1ccccc1COc1ccc(/C=N/OC2CCCC2)cc1C` [Compound 70, (E)-methyl 2-(2-((4-((E)-(cyclopentyloxyimino)methyl)-2-methylphenoxy)methyl)phenyl)-3-methoxyacrylate] the IC50 was 180 nM.
For `CO/C=C(/C(=O)OC)c1ccccc1COc1cc(C)c(/C=N/OCCCOc2ccccc2)cc1C` [Compound 71, (E)-methyl 2-(2-((2,5-dimethyl-4-((E)-(3-phenoxypropyloxyimino)-methyl)phenoxy)methyl)phenyl)-3-methoxyacrylate], the IC50 was 20 nM.
For `CO/C=C(/C(=O)OC)c1ccccc1COc1cc(C)c(/C=N/OCc2cccc(OC)c2)cc1C` [Compound 72, (E)-methyl 2-(2-((4-((E)-(3-methoxybenzyloxyimino)methyl)-2,5-dimethylphenoxy)methyl)phenyl)-3-methoxyacrylate], the IC50 was 180 nM.
In the case of `CO/C=C(/C(=O)OC)c1ccccc1COc1cc(C)c(/C=N/OCc2ccccn2)cc1C` [Compound 73, (E)-methyl 2-(2-((4-((E)-(pyridin-2-ylmethoxyimino)methyl)-2,5-dimethylphenoxy)methyl)phenyl)-3-methoxyacrylate], the IC50 is reported as 30 nM.
Compound `CO/C=C(/C(=O)OC)c1ccccc1COc1cc(C)c(/C=N/OCc2ccncc2)cc1C` [Compound 74, (E)-methyl 2-(2-((4-((E)-(pyridin-4-ylmethoxyimino)methyl)-2,5-dimethylphenoxy)methyl)phenyl)-3-methoxyacrylate] has an IC50 of 60 nM.
`CO/C=C(/C(=O)OC)c1ccccc1COc1cccc(/C=N/OCCOc2ccccc2)c1` [Compound 75, (E)-methyl 2-(2-((3-((E)-(2-phenoxyethoxyimino)methyl)phenoxy)-methyl)phenyl)-3-methoxyacrylate] gave an IC50 of 150 nM.
`CO/C=C(/C(=O)OC)c1ccccc1COc1cccc(OCCN2CCOCC2)c1` [Compound 76, (E)-methyl 2-(2-((3-(2-morpholinoethoxy)phenoxy)methyl)phenyl)-3-methoxyacrylate] gave an IC50 of 1500 nM.
Compound `CO/C=C(/C(=O)OC)c1ccccc1COc1cc(C)c(/C(C)=N/OC)cc1C` [Compound 77, (E)-methyl 2-(2-((2,5-dimethyl-4-((E)-1-(methoxyimino)ethyl)phenoxy)-methyl)phenyl)-3-methoxyacrylate] has an IC50 of 20 nM.
`CCO/N=C(\C)c1cc(C)c(OCc2ccccc2/C(=C\OC)C(=O)OC)cc1C` [Compound 78, (E)-methyl 2-(2-((2,5-dimethyl-4-((E)-1-(ethoxyimino)ethyl)phenoxy)-methyl)phenyl)-3-methoxyacrylate] showed an IC50 of 20 nM.
`CO/C=C(/C(=O)OC)c1ccccc1COc1cc(C)c(/C(C)=N/OCc2ccccn2)cc1C` [Compound 79, (E)-methyl 2-(2-((2,5-dimethyl-4-((E)-1-(pyridin-2-ylmethoxyimino)-ethyl)phenoxy)methyl)phenyl)-3-methoxyacrylate] was tested, and the IC50 was 61 nM.
In the case of `CO/C=C(/C(=O)OC)c1ccccc1COc1cc(C)c(/C(COC)=N/OC)cc1C` [Compound 80, (E)-methyl 3-methoxy-2-(2-((4-((Z)-2-methoxy-1-(methoxyimino)ethyl)-2,5-dimethylphenoxy)methyl)phenyl)acrylate], the IC50 is reported as 9 nM.
For `CO/C=C(/C(=O)OC)c1ccccc1COc1cc(C)c(-c2cnco2)cc1C` [Compound 81, (E)-methyl 3-methoxy-2-(2-((2,5-dimethyl-4-(oxazol-5-yl)phenoxy)-methyl)phenyl)acrylate], the IC50 was 37 nM.
With `CO/C=C(/C(=O)OC)c1ccccc1COc1cc(C)c(-c2ccn(C)n2)cc1C` [Compound 82, (E)-methyl 3-methoxy-2-(2-((2,5-dimethyl-4-(1-methyl-1H-pyrazol-3-yl)phenoxy)methyl)phenyl)acrylate] the IC50 was 2 nM.
